Values of other authors, collected in patent US20170101678A1, “METHOD FOR SCREENING RISK OF DRUG-INDUCED TOXICITY” (RESEARCH CENTER FOR BIOTECHNOLOGY AND MEDICINE POLICY, priority 2014, published 2017).
Like-named read-outs stand apart in the source and are kept apart here.

Details: patients treated with INH

## NNC(=O)c1ccncc1 [INH, Isoniazid]
CYP2E1 1A/1A genotype
  patients developing hepatitis or increased liver readings: 39%
CYP2E1 1A/1B genotype
  patients developing hepatitis or increased liver readings: 15%
